Experimental data: patent US20250312365A1, “METHODS FOR INHIBITION OF SQUAMOUS CARCINOMA CELLS USING CERAMIDE MODULATORS” (The Trustees of Indiana University, priority 2024, published 2025)

What was measured:
[1] = system: ACER2; assay: ACER2 mRNA expression in SCC4 cells; type: cell-based, human; settings: 0.1 or 1 μg/ml of PGDHC
Description: (§1) Next, the effect of PGDHC on ceramidase gene expression was determined. OECM1 and SCC4 cells were exposed to 0.1 or 1 μg/ml of PGDHC. The mRNA levels of ceramidases were then measured following PGDHC exposure. PGDHC inhibited the expression of ASAH1 and ACER2 mRNAs in OECM1 (FIG. 8). […] See, e.g., Vijayan et al., J Adv Res. 2023 Dec. 21:S2090-1232(23)00403-4, Doan et al., Oncotarget. 2017 Nov. 7;8(68):112662-112674., Lai et al., Sci Rep. 2021 May 27;11(1):11221, Liu et al., Cancer Sci. 2020 July;111(7):2259-2274., and Liu et al., Front Genet. 2023 Mar. 1:14:1148437.

[2] = system: ACER2; assay: ACER2 mRNA expression in OECM1 cells; type: cell-based, human; settings: 0.1 or 1 μg/ml of PGDHC
Source text: Exemplary ceramidase genes, the expression of which can be measured to determine upregulation, include but are not limited to ASAH1, ACER2, and ACER3. A determination of ceramidase gene expression can be made according to methods available to one of skill in the art. For example, Yamada et al., J Cell Mol Med. 2023 May;27(9):1290-1295 and Kyriakou et al., Int. J. Mol. Sci. 2020, 21(5):1607 describes measuring the mRNA levels of ceramidases by RNA extraction and RT-PCR.
To test this hypothesis, it was first determined whether artificially elevated intracellular concentration of ceramide species affect the expression of acid/ASAH1, neutral/ASAH2, and alkaline1-3/ACER1-3 ceramidases in oral squamous cell carcinoma cells using C6-ceramide. Applicant previously reported that C6-ceramide serves as a positive control for PGDHC-mediated inflammation (Kanzaki et al., Biochim Biophys Acta Mol Cell Biol Lipids. 2017 May;1862(5):452-462) and promotes the intracellular accumulation of ceramide in cancer cells. See, e.g., Zhang et al., Front Plant Sci. 2020 Feb. 26:11:145, Zhai et al., Biochem Biophys Res Commun. 2015 December;468(1-2):274-80, Wilhelm et al., Cancers (Basel). 2021 Jan. 13;13(2):270, and Chapman et al., Biochem Pharmacol. 2010 Aug. 1;80(3):308-15.
as §1
To elucidate the effects of C16:0 and dh-C16:0 on oral squamous cell carcinoma, the ability of exogenous C16:0 and dh-C16:0 to modulate proliferation and ceramidase expression in OECM1 cells was determined. […] In contrast, no effect of C16:0 on ASAH1 and ACER2 mRNA expressions.

phosphoglycerol dihydroceramide [PGDHC] was tested, and the “expression of ACER2 mRNA in SCC4 cells” value [1] was “downregulated” and the “expression of ACER2 mRNA in OECM1” value [2] was “inhibited”.
